Patent US20150329918A1, “JAGGED1 AS A MARKER AND THERAPEUTIC TARGET FOR BREAST CANCER BONE METASTASIS” (The Trustees of Princeton University, priority 2011, published 2015)

Assays:
[1] = test system: primary mammary tumors of MDA231 sublines; test: Orthotopic primary mammary tumor xenograft; conditions: mouse, in vivo
Method: (§1) For bone metastsis studies, 10^5 tumor cells were injected into the left cardiac ventricle of anesthetized female athymic Ncr-nu/nu or BALB/c mice. Development of metastases was monitored by BLI. Bioluminescence images were acquired with a Xenogen IVIS 200 Imaging System. Analysis was performed with Living Image software by measuring photon flux in the hindlimbs of mice. Data were normalized to the signal on day 7. Bone metastasis-free survival curves represent the time point at which each mouse developed bone metastasis by threshold BLI signals in the hindlimbs. For the orthotopic xenograft model, mammary fat pad injections and primary tumor size measurements were performed following the procedure described previously (Minn et al., 2005, which is incorporated herein by reference as if fully set forth).
(§2) MRK-003 is a potent and specific gamma-secretase inhibitor whose biochemical, cellular and pharmacological properties have been extensively studied and reported. MRK-003 is a cyclic sulfamide with sub-nanomolar potency inhibiting gamma-secretase-mediated cleavage of Notch to its active form (NICD) (Lewis et al., 2007, which is incorporated herein by reference as if fully set forth). […] For xenograft experiments, mice were administered the vehicle (0.5% methylcellulose) or MRK-003 by oral gavage twice a week at a 100 mg/kg dosage. The dosing schedule was 2-days on, 5-days off. […]

[2] = test system: Notch; conditions: Tammam et al., 2009; cited from earlier work
[3] = LoRusso et al, AACR 2009; cited from earlier work
[4] = test system: gamma-secretase; conditions: Lewis et al., 2007; cited from earlier work
[5] = test system: MDA231 sublines (SCP28 tumor cells); test: Proliferation of tumor cells cultured alone; assay type: cell-based, human
[6] = test system: Notch target genes and IL-6; test: Species-specific qRT-PCR of the stromal compartment of bone metastases; assay type: in vivo; conditions: mouse-specific qRT-PCR; FIG. 17A
Method: RNA from in vitro cultured cells or flow cytometry-separated cells was collected in RLT lysis buffer and extracted with RNeasy mini kit (Qiagen). RNA extraction from in vivo tissue samples was performed using Trizol (Invitrogen) according to the manufacturer's protocol. cDNA synthesis of RNA was performed using Superscript III First-Strand (Invitrogen). Quantitative RT-PCR was performed using Power Syber Green PCR Master Mix (Applied Biosystems) with the ABI Prism 7900HT thermocycler (Applied Biosystems) according to the manufacturer's protocol. A standard curve for each gene was generated by serial dilutions of a standard. Values were then normalized by the amount of GAPDH or β-actin in each sample. For in vivo samples, species-specific primers were employed for gene expression analysis in the tumor compartment (human) versus stroma compartment (mouse).

[7] = test system: Notch reporter; test: Notch reporter assay in MC3T3-E1 osteoblasts cocultured with JAG1 OE tumor cells; assay type: cell-based, mouse; conditions: 6-fold increase induced by JAG1 OE tumor cell coculture; FIG. 7A
Method: For transfection experiments, MC3T3-E1 osteoblasts were seeded at 2×10^5 cells/well in 12-well plates and grown to 95% confluence. For reporter assays, the firefly luciferase Notchreporter (Zeng et al., 2005, which is incorporated herein by reference as if fully set forth) and cytomegalovirus (CMV)-Renilla luciferase control (Promega) plasmids were transfected using Lipofectamine 2000 at concentrations designated by the manufacturer's instructions. After 4 hours, the transfection media was changed to regular media containing 1×10^5 vector control or JAG1 OE tumor cells per well and plated in triplicate in the presence of DMSO or MRK-003. Following 2 days, the coculture was lysed and subjected to a luciferase assay in which firefly counts (Notch reporter activity) was divided by renilla counts to normalize for transfection efficiency. For siRNA transfection experiments, a scrambled control siRNA or two distinct targeting siRNAs against Rbpj #1-[…] [SEQ ID NO: 6] and #2-[…] [SEQ ID NO: 7] or Hey1 #1-[…] [SEQ ID NO: 8] and #2-[…] [SEQ ID NO: 9] […] Following 6 days, the coculture was lysed and subjected to a luciferase assay to selectively quantify the number of tumor cells. For gene expression analysis, RNA from cocultures was collected in RLT lysis buffer, extracted with RNeasy mini kit (Qiagen), and subjected to quantitative RT-PCR.

[8] = test system: SCP2 bone metastasis; test: Bone metastasis xenograft, SCP2 cells injected intracardially, MRK-003 treatment; assay type: in vivo, mouse
Method: as §1
Osteolysis was assessed by X-ray radiography. Anesthetized mice were placed on single wrapped films (X-OMAT AR, Eastman Kodak) and exposed to X-ray radiography at 35 kV for 15 s using a MX-20 Faxitron instrument. Films were developed using a Konica SRX-101A processor. Osteolytic lesions were identified on radiographs as demarcated radiolucent lesions in the bone and quantified using the ImageJ software (National Institutes of Health).
Hindlimb bones were excised from mice at the end point of each experiment, immediately after the last BLI time point. Following this, the tumor-bearing hind limb bones were fixed in 10% neutral-buffered formalin, decalcified in 10% EDTA for 2 weeks, and embedded in paraffin for hematoxylin and eosin (H&E), tartrate-resistant acid phosphatase (TRAP) (Kos et al., 2003, which is incorporated herein by reference as if fully set forth), or immunohistochemical staining. Histomorphometric analysis was performed on H&E stained bone metastasis samples using the Zeiss Axiovert 200 microscope and the AxioVision software version 4.6.3 SP1. For quantitative analysis of lesion area, a 5× objective was used to focus on the tumor region of interest and images were acquired using the AxioCamICc3 camera set to an exposure of 100 ms. Lesions that were larger than the field of view were quantified by acquiring multiple images to encompass the entire lesion. The “spline” function of the AxioVision software was used to outline the region of interest and subsequently quantify the lesion area. Osteoclast number was assessed as multinucleated TRAP^+ cells along the tumor-bone interface and reported as number/mm of interface (Yin et al., 2003, which is incorporated herein by reference as if fully set forth). Immunohistochemical analysis was performed with heat-induced antigen retrieval. Primary antibodies used were anti-JAGGED1 (Santa Cruz, sc-6011) and anti-Ki67 (Dako, Denmark). Biotinylated secondary antibody was used with Vectastain ABC Kit (Vector Laboratories) and DAB detection kit (Zymed) to reveal the positively stained cells with nuclei counterstained with hematoxylin.
as §2

O=S1(=O)N[C@@]2(CN1CC(F)(F)F)[C@@H]1CC[C@H]2Cc2ccc(/C=C/CN3CCC(C(F)(F)F)CC3)cc2C1 [MRK-003]
growth rate of primary mammary tumors [1]: not altered
primary tumor xenografts of MDA231 sublines, control vs treated [1]: no difference
duration of target engagement sufficient to induce potent Notch inhibition [2]: 48 h
clinical responses with once-weekly dosing [3]: strong clinical responses
tolerability of once-weekly dosing in the clinic [3]: well-tolerated
potency inhibiting gamma-secretase-mediated cleavage of Notch to NICD [4]: sub-nanomolar
proliferative ability of tumor cells cultured alone ([5]; JAG1 OE SCP28 without osteoblasts, FIGS. 9B-9C): did not affect
proliferation assays of MDA231 sublines, control vs treated ([5]; relatively low concentrations sufficient to inhibit Notch in bone-specific cells): no difference
expression levels of Notch target genes and IL-6 in the stromal compartment of bone metastases [6]: significantly reduced
Notch activity (Notch reporter) [7]: abolished
reduction in bone metastasis burden by BLI ([8]; 100 mg/kg oral gavage twice a week, FIG. 16A): 5 fold
delay in the onset of bone metastasis ([8]; FIG. 16B): ~10 days
number of bone lesions ([8]; FIG. 16C): reduced
reduction in X-ray lesion area ([8]; FIG. 16D): 2 fold
decrease in the number of TRAP+ osteoclasts ([8]; bone-tumor interface, FIG. 16E): 3 fold
